Results: patent publication US20090286834A1, “Pyridine Analogues VI” (AstraZeneca AB, priority 2006, published 2009)
pIC50: −log10 of the molar value.

Biological target: T1, P2Y12 receptor (Homo sapiens, UniProt Q9H244)
T1 construct: expressed in transfected cells; host or cells: CHO cells (membranes)
Assay: Functional inhibition of 2-Me-S-ADP induced P2Y12 signalling (35S-GTPγS, membranes from P2Y12 transfected CHO-cells)
Assay type: biochemical
Details: EC80 concentration of agonist 2-methyl-thio-adenosine diphosphate, 30° C. for 45 min
Method: Functional inhibition of the P2Y12 receptor can be measured by in vitro assays using cell membranes from P2Y12 transfected CHO-cells, the methodology is indicated below.
Functional inhibition of 2-Me-S-ADP induced P2Y12 signalling: 5 μg of membranes were diluted in 200 μl of 200 mM NaCl, 1 mM MgCl2, 50 mM HEPES (pH 7.4), 0.01% BSA, 30 μg/ml saponin and 10 μM GDP. To this was added an EC80 concentration of agonist (2-methyl-thio-adenosine diphosphate), the required concentration of test compound and 0.1 μCi ^35S-GTPγS. The reaction was allowed to proceed at 30° C. for 45 min. Samples were then transferred on to GF/B filters using a cell harvester and washed is with wash buffer (50 mM Tris (pH 7.4), 5 mM MgCl2, 50 mM NaCl). Filters were then covered with scintilant and counted for the amount of ^35S-GTPγS retained by the filter. Maximum activity was that determined in the presence of the agonist and minimum activity in the absence of the agonist following subtraction of the value determined for non-specific activity. The effect of compounds at various concentrations was plotted according to the equation
y=A+((B−A)/(1+((C/x)̂D)))
and IC50 estimated where A is the bottom plateau of the curve i.e. the final minimum y value B is the top of the plateau of the curve i.e. the final maximum y value C is the x value at the middle of the curve. […]

T1 sequence (Q9H244 whole entry): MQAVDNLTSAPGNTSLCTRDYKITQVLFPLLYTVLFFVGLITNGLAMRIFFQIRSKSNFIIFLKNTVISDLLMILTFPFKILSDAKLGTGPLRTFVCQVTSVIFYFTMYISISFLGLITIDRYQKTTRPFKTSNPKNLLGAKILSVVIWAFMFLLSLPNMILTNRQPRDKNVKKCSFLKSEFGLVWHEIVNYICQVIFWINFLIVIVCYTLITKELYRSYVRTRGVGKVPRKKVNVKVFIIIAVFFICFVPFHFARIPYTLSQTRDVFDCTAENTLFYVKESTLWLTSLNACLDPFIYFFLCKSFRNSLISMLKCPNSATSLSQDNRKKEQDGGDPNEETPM

Question: How did the pIC50 turn out when `CCOC(=O)c1cc(C#N)c(NC2CCC(C(=O)NS(=O)(=O)c3ccc(Cl)s3)C2)nc1C(F)(F)F` (stereo not shown) [Example 3, Ethyl 6-{[3-({[(5-chloro-2-thienyl)sulfonyl]amino}carbonyl)cyclopentyl]amino}-5-cyano-2-(trifluoromethyl)nicotinate] was run?
Answer: 6.09
